“And” between values parts separate entries of the source, which are not always exact repeats. Equal entries are not always repeated.
Assay: molar heat capacity at constant volume
Details: Fluid (supercritical or subcritical phases), Vacuum adiabatic calorimetry

FC(F)C(F)(F)F [pentafluoroethane]
Details	molar heat capacity at constant volume
365 K, Mass density=773.3 kg/m3	119.04 J/K/mol
365 K, Mass density=881.8 kg/m3	110.32 J/K/mol
365 K, Mass density=973.8 kg/m3	106.41 J/K/mol and 108.3 J/K/mol
365 K, Mass density=1075 kg/m3	105.75 J/K/mol
366 K, Mass density=403.6 kg/m3	108.16 J/K/mol
366 K, Mass density=503 kg/m3	114.45 J/K/mol
366 K, Mass density=585.5 kg/m3	119.7 J/K/mol and 112.44 J/K/mol
366 K, Mass density=688.1 kg/m3	116.48 J/K/mol
366 K, Mass density=881.7 kg/m3	110.43 J/K/mol
366 K, Mass density=973.7 kg/m3	107.62 J/K/mol and 109.23 J/K/mol
366 K, Mass density=1074.9 kg/m3	106.22 J/K/mol
367 K, Mass density=403.6 kg/m3	110.86 J/K/mol
367 K, Mass density=502.9 kg/m3	113.31 J/K/mol
367 K, Mass density=585.4 kg/m3	117.62 J/K/mol and 110.28 J/K/mol
367 K, Mass density=688.1 kg/m3	115.05 J/K/mol
367 K, Mass density=881.7 kg/m3	109.7 J/K/mol
367 K, Mass density=973.6 kg/m3	107.58 J/K/mol and 108.96 J/K/mol
367 K, Mass density=1074.8 kg/m3	106.41 J/K/mol
368 K, Mass density=403.5 kg/m3	111.09 J/K/mol
368 K, Mass density=502.9 kg/m3	112.14 J/K/mol
368 K, Mass density=585.4 kg/m3	115.53 J/K/mol and 108.9 J/K/mol
368 K, Mass density=688 kg/m3	113.01 J/K/mol
368 K, Mass density=773.1 kg/m3	111.16 J/K/mol
368 K, Mass density=881.6 kg/m3	109.62 J/K/mol
368 K, Mass density=973.6 kg/m3	106.75 J/K/mol and 108.55 J/K/mol
368 K, Mass density=1074.7 kg/m3	106.17 J/K/mol
369 K, Mass density=403.5 kg/m3	111.67 J/K/mol
369 K, Mass density=502.9 kg/m3	113.46 J/K/mol
369 K, Mass density=585.4 kg/m3	118.03 J/K/mol and 110.31 J/K/mol
369 K, Mass density=688 kg/m3	114.37 J/K/mol
369 K, Mass density=773.1 kg/m3	112.65 J/K/mol
369 K, Mass density=881.6 kg/m3	110.94 J/K/mol
369 K, Mass density=973.5 kg/m3	108.28 J/K/mol and 109.62 J/K/mol
369 K, Mass density=1074.6 kg/m3	106.18 J/K/mol
370 K, Mass density=403.5 kg/m3	111.22 J/K/mol
370 K, Mass density=502.9 kg/m3	114.85 J/K/mol
370 K, Mass density=585.4 kg/m3	118.04 J/K/mol and 108.82 J/K/mol
370 K, Mass density=687.9 kg/m3	116.1 J/K/mol
370 K, Mass density=773 kg/m3	113 J/K/mol
370 K, Mass density=881.5 kg/m3	111.13 J/K/mol
370 K, Mass density=973.4 kg/m3	107.54 J/K/mol and 109.82 J/K/mol
370 K, Mass density=1074.5 kg/m3	106.55 J/K/mol
371 K, Mass density=403.5 kg/m3	112.09 J/K/mol
371 K, Mass density=502.9 kg/m3	116.62 J/K/mol
371 K, Mass density=585.3 kg/m3	116.07 J/K/mol and 110.26 J/K/mol
371 K, Mass density=687.9 kg/m3	113.67 J/K/mol
371 K, Mass density=773 kg/m3	111.62 J/K/mol
371 K, Mass density=881.4 kg/m3	110.7 J/K/mol
371 K, Mass density=973.3 kg/m3	107.44 J/K/mol and 109.17 J/K/mol
371 K, Mass density=1074.4 kg/m3	107.07 J/K/mol
372 K, Mass density=403.5 kg/m3	114.04 J/K/mol
372 K, Mass density=502.8 kg/m3	115.24 J/K/mol
372 K, Mass density=585.3 kg/m3	115.84 J/K/mol and 110.71 J/K/mol
372 K, Mass density=687.9 kg/m3	112.84 J/K/mol
372 K, Mass density=772.9 kg/m3	111.54 J/K/mol
372 K, Mass density=881.4 kg/m3	110.3 J/K/mol
372 K, Mass density=973.3 kg/m3	107.17 J/K/mol and 108.04 J/K/mol
372 K, Mass density=1074.3 kg/m3	106.22 J/K/mol
373 K, Mass density=403.5 kg/m3	113.17 J/K/mol
373 K, Mass density=502.8 kg/m3	117.01 J/K/mol
373 K, Mass density=585.3 kg/m3	117.2 J/K/mol and 110.91 J/K/mol
373 K, Mass density=687.8 kg/m3	113.56 J/K/mol
373 K, Mass density=772.9 kg/m3	111.8 J/K/mol
373 K, Mass density=881.3 kg/m3	111.19 J/K/mol
373 K, Mass density=973.2 kg/m3	107.61 J/K/mol and 108.78 J/K/mol
374 K, Mass density=403.4 kg/m3	114.45 J/K/mol
374 K, Mass density=502.8 kg/m3	119.13 J/K/mol
374 K, Mass density=585.3 kg/m3	117.5 J/K/mol and 112.68 J/K/mol
374 K, Mass density=687.8 kg/m3	114.16 J/K/mol
374 K, Mass density=772.9 kg/m3	112.71 J/K/mol
374 K, Mass density=881.2 kg/m3	112 J/K/mol
374 K, Mass density=973.1 kg/m3	108.98 J/K/mol and 110.07 J/K/mol
375 K, Mass density=403.4 kg/m3	112.95 J/K/mol
375 K, Mass density=502.8 kg/m3	117.92 J/K/mol
375 K, Mass density=585.2 kg/m3	116.64 J/K/mol and 110.73 J/K/mol
375 K, Mass density=687.8 kg/m3	113.4 J/K/mol
375 K, Mass density=772.8 kg/m3	112.33 J/K/mol
375 K, Mass density=881.2 kg/m3	111 J/K/mol
375 K, Mass density=973 kg/m3	108.25 J/K/mol and 109.81 J/K/mol
376 K, Mass density=403.4 kg/m3	116.08 J/K/mol
376 K, Mass density=502.8 kg/m3	116.37 J/K/mol
376 K, Mass density=585.2 kg/m3	116.55 J/K/mol and 110.52 J/K/mol
376 K, Mass density=687.7 kg/m3	113.56 J/K/mol
376 K, Mass density=772.8 kg/m3	112.56 J/K/mol
376 K, Mass density=881.1 kg/m3	110.12 J/K/mol
376 K, Mass density=973 kg/m3	107.55 J/K/mol and 109 J/K/mol
377 K, Mass density=403.4 kg/m3	115.48 J/K/mol
377 K, Mass density=502.7 kg/m3	117.28 J/K/mol
377 K, Mass density=585.2 kg/m3	116.34 J/K/mol and 111.62 J/K/mol
377 K, Mass density=687.7 kg/m3	114.45 J/K/mol
377 K, Mass density=772.7 kg/m3	113.06 J/K/mol
377 K, Mass density=881.1 kg/m3	110.86 J/K/mol
377 K, Mass density=972.9 kg/m3	108.42 J/K/mol and 108.94 J/K/mol
378 K, Mass density=403.4 kg/m3	113.28 J/K/mol
378 K, Mass density=502.7 kg/m3	118.29 J/K/mol
378 K, Mass density=585.1 kg/m3	116.82 J/K/mol and 112.87 J/K/mol
378 K, Mass density=687.6 kg/m3	114.84 J/K/mol
378 K, Mass density=772.7 kg/m3	112.51 J/K/mol
378 K, Mass density=881 kg/m3	111.43 J/K/mol
378 K, Mass density=972.8 kg/m3	108.14 J/K/mol and 110.22 J/K/mol
379 K, Mass density=403.3 kg/m3	117.97 J/K/mol
379 K, Mass density=502.7 kg/m3	115.21 J/K/mol
379 K, Mass density=585.1 kg/m3	116.17 J/K/mol and 112.3 J/K/mol
379 K, Mass density=687.6 kg/m3	115.82 J/K/mol
379 K, Mass density=772.6 kg/m3	113.55 J/K/mol
379 K, Mass density=880.9 kg/m3	111.09 J/K/mol
379 K, Mass density=972.7 kg/m3	107.65 J/K/mol and 109.27 J/K/mol
380 K, Mass density=403.3 kg/m3	116.02 J/K/mol
380 K, Mass density=502.7 kg/m3	112.64 J/K/mol
380 K, Mass density=585.1 kg/m3	111.27 J/K/mol
380 K, Mass density=687.6 kg/m3	113.06 J/K/mol
380 K, Mass density=772.6 kg/m3	113.31 J/K/mol
380 K, Mass density=880.9 kg/m3	111.18 J/K/mol
380 K, Mass density=972.6 kg/m3	107.71 J/K/mol and 108.81 J/K/mol
381 K, Mass density=403.3 kg/m3	114.7 J/K/mol
381 K, Mass density=502.6 kg/m3	115.06 J/K/mol
381 K, Mass density=585 kg/m3	114.39 J/K/mol
381 K, Mass density=687.5 kg/m3	113.14 J/K/mol
381 K, Mass density=772.5 kg/m3	113.07 J/K/mol
381 K, Mass density=880.8 kg/m3	112.11 J/K/mol
381 K, Mass density=972.6 kg/m3	113.29 J/K/mol and 109.7 J/K/mol
382 K, Mass density=403.3 kg/m3	116.14 J/K/mol
382 K, Mass density=502.6 kg/m3	117.31 J/K/mol

Reference: the NIST ThermoML archive (doi:10.1021/je0501843)
